Laboratory results from ChEMBL document CHEMBL4020788, “Synthesis, SAR and molecular docking studies of benzo[d]thiazole-hydrazones as potential antibacterial and antifungal agents” (2017).
Calls of active or inactive are those of the source. The rule behind the calls is not given here.

How the values were obtained:
Assay type in all cases: functional
[1] = tested on: Staphylococcus aureus; assay: Antibacterial activity against Staphylococcus aureus at 25 ug/ml after 24 hrs by agar well diffusion method
[2] = tested on: Staphylococcus aureus; assay: Antibacterial activity against Staphylococcus aureus at 50 ug/ml after 24 hrs by agar well diffusion method
[3] = tested on: Staphylococcus aureus; assay: Antibacterial activity against Staphylococcus aureus at 75 ug/ml after 24 hrs by agar well diffusion method
[4] = tested on: Staphylococcus aureus; assay: Antibacterial activity against Staphylococcus aureus at 100 ug/ml after 24 hrs by agar well diffusion method
[5] = tested on: Bacillus subtilis; assay: Antibacterial activity against Bacillus subtilis at 25 ug/ml after 24 hrs by agar well diffusion method; conditions: for zone of inhibition at 25 µg/mL: read-out: DIZ
[6] = tested on: Bacillus subtilis; assay: Antibacterial activity against Bacillus subtilis at 50 ug/ml after 24 hrs by agar well diffusion method; conditions: for zone of inhibition at 50 µg/mL: read-out: DIZ
[7] = tested on: Bacillus subtilis; assay: Antibacterial activity against Bacillus subtilis at 75 ug/ml after 24 hrs by agar well diffusion method; conditions: for zone of inhibition at 75 µg/mL: read-out: DIZ
[8] = tested on: Bacillus subtilis; assay: Antibacterial activity against Bacillus subtilis at 100 ug/ml after 24 hrs by agar well diffusion method; conditions: for zone of inhibition at 100 µg/mL: read-out: DIZ
[9] = tested on: Escherichia coli; assay: Antibacterial activity against Escherichia coli at 25 ug/ml after 24 hrs by agar well diffusion method; conditions: for zone of inhibition at 25 µg/mL: read-out: DIZ
[10] = tested on: Escherichia coli; assay: Antibacterial activity against Escherichia coli at 50 ug/ml after 24 hrs by agar well diffusion method; conditions: for zone of inhibition at 50 µg/mL: read-out: DIZ
[11] = tested on: Escherichia coli; assay: Antibacterial activity against Escherichia coli at 75 ug/ml after 24 hrs by agar well diffusion method; conditions: for zone of inhibition at 75 µg/mL: read-out: DIZ
[12] = tested on: Escherichia coli; assay: Antibacterial activity against Escherichia coli at 100 ug/ml after 24 hrs by agar well diffusion method; conditions: for zone of inhibition at 100 µg/mL: read-out: DIZ
[13] = tested on: Klebsiella pneumoniae; assay: Antibacterial activity against Klebsiella pneumoniae at 25 ug/ml after 24 hrs by agar well diffusion method; conditions: for zone of inhibition at 25 µg/mL: read-out: DIZ
[14] = tested on: Klebsiella pneumoniae; assay: Antibacterial activity against Klebsiella pneumoniae at 50 ug/ml after 24 hrs by agar well diffusion method; conditions: for zone of inhibition at 50 µg/mL: read-out: DIZ
[15] = tested on: Klebsiella pneumoniae; assay: Antibacterial activity against Klebsiella pneumoniae at 75 ug/ml after 24 hrs by agar well diffusion method; conditions: for zone of inhibition at 75 µg/mL: read-out: DIZ
[16] = tested on: Klebsiella pneumoniae; assay: Antibacterial activity against Klebsiella pneumoniae at 100 ug/ml after 24 hrs by agar well diffusion method; conditions: for zone of inhibition at 100 µg/mL: read-out: DIZ
[17] = tested on: Staphylococcus aureus; assay: Antibacterial activity against methicillin resistant Staphylococcus aureus MRSA090 at 25 ug/ml after 24 hrs by agar well diffusion method; conditions: for zone of inhibition at 25 µg/mL: MRSA090, 24 h, read-out: DIZ
[18] = tested on: Staphylococcus aureus; assay: Antibacterial activity against methicillin resistant Staphylococcus aureus MRSA090 at 50 ug/ml after 24 hrs by agar well diffusion method; conditions: for zone of inhibition at 50 µg/mL: MRSA090, 24 h, read-out: DIZ
[19] = tested on: Staphylococcus aureus; assay: Antibacterial activity against methicillin resistant Staphylococcus aureus MRSA090 at 75 ug/ml after 24 hrs by agar well diffusion method; conditions: for zone of inhibition at 75 µg/mL: MRSA090, 24 h, read-out: DIZ
[20] = tested on: Staphylococcus aureus; assay: Antibacterial activity against methicillin resistant Staphylococcus aureus MRSA090 at 100 ug/ml after 24 hrs by agar well diffusion method; conditions: for zone of inhibition at 100 µg/mL: MRSA090, 24 h, read-out: DIZ
[21] = tested on: Aspergillus niger; assay: Antifungal activity against Aspergillus niger at 25 ug/ml after 48 hrs by agar well diffusion method
[22] = tested on: Aspergillus niger; assay: Antifungal activity against Aspergillus niger at 50 ug/ml after 48 hrs by agar well diffusion method
[23] = tested on: Aspergillus niger; assay: Antifungal activity against Aspergillus niger at 75 ug/ml after 48 hrs by agar well diffusion method
[24] = tested on: Aspergillus niger; assay: Antifungal activity against Aspergillus niger at 100 ug/ml after 48 hrs by agar well diffusion method
[25] = tested on: Fusarium verticillioides; assay: Antifungal activity against Fusarium moniliforme at 25 ug/ml after 48 hrs by agar well diffusion method; conditions: for zone of inhibition at 25 µg/mL: read-out: DIZ
[26] = tested on: Fusarium verticillioides; assay: Antifungal activity against Fusarium moniliforme at 50 ug/ml after 48 hrs by agar well diffusion method; conditions: for zone of inhibition at 50 µg/mL: read-out: DIZ
[27] = tested on: Fusarium verticillioides; assay: Antifungal activity against Fusarium moniliforme at 75 ug/ml after 48 hrs by agar well diffusion method; conditions: for zone of inhibition at 75 µg/mL: read-out: DIZ
[28] = tested on: Fusarium verticillioides; assay: Antifungal activity against Fusarium moniliforme at 100 ug/ml after 48 hrs by agar well diffusion method; conditions: for zone of inhibition at 100 µg/mL: read-out: DIZ
[29] = tested on: Fusarium oxysporum; assay: Antifungal activity against Fusarium oxysporum at 25 ug/ml after 48 hrs by agar well diffusion method
[30] = tested on: Fusarium oxysporum; assay: Antifungal activity against Fusarium oxysporum at 50 ug/ml after 48 hrs by agar well diffusion method
[31] = tested on: Fusarium oxysporum; assay: Antifungal activity against Fusarium oxysporum at 75 ug/ml after 48 hrs by agar well diffusion method; conditions: for zone of inhibition at 75 µg/mL: read-out: DIZ
[32] = tested on: Fusarium oxysporum; assay: Antifungal activity against Fusarium oxysporum at 100 ug/ml after 48 hrs by agar well diffusion method; conditions: for zone of inhibition at 100 µg/mL: read-out: DIZ

Cc1cccc2nc(N/N=C/CC(C)C)sc12
diameter of the inhibition zone (DIZ) [1]: inactive
diameter of the inhibition zone (DIZ) [2]: inactive
diameter of the inhibition zone (DIZ) [3]: inactive
diameter of the inhibition zone (DIZ) [4]: inactive
diameter of the inhibition zone (DIZ) [5]: inactive
diameter of the inhibition zone (DIZ) [6]: inactive
diameter of the inhibition zone (DIZ) [7]: inactive
diameter of the inhibition zone (DIZ) [8]: inactive
diameter of the inhibition zone (DIZ) [9]: inactive
diameter of the inhibition zone (DIZ) [10]: inactive
diameter of the inhibition zone (DIZ) [11]: inactive
diameter of the inhibition zone (DIZ) [12]: inactive
diameter of the inhibition zone (DIZ) [13]: inactive
diameter of the inhibition zone (DIZ) [14]: inactive
diameter of the inhibition zone (DIZ) [15]: inactive
diameter of the inhibition zone (DIZ) [16]: inactive
diameter of the inhibition zone (DIZ) [17]: inactive
diameter of the inhibition zone (DIZ) [18]: inactive
diameter of the inhibition zone (DIZ) [19]: inactive
diameter of the inhibition zone (DIZ) [20]: inactive
diameter of the inhibition zone (DIZ) [21]: inactive
diameter of the inhibition zone (DIZ) [22]: inactive
diameter of the inhibition zone (DIZ) [23]: inactive
diameter of the inhibition zone (DIZ) [24]: inactive
diameter of the inhibition zone (DIZ) [25]: inactive
diameter of the inhibition zone (DIZ) [26]: inactive
diameter of the inhibition zone (DIZ) [27]: inactive
diameter of the inhibition zone (DIZ) [28]: inactive
diameter of the inhibition zone (DIZ) [29]: inactive
diameter of the inhibition zone (DIZ) [30]: inactive
diameter of the inhibition zone (DIZ) [31]: inactive
diameter of the inhibition zone (DIZ) [32]: inactive

COc1ccc(/C=N/Nc2nc3cccc(C)c3s2)cc1Br
diameter of the inhibition zone (DIZ) [1]: inactive
diameter of the inhibition zone (DIZ) [2]: inactive
diameter of the inhibition zone (DIZ) [3]: inactive
diameter of the inhibition zone (DIZ) [4]: inactive
zone of inhibition at 25 µg/mL [5]: 4 mm
zone of inhibition at 50 µg/mL [6]: 8 mm
zone of inhibition at 75 µg/mL [7]: 11 mm
zone of inhibition at 100 µg/mL [8]: 16 mm
zone of inhibition at 25 µg/mL [9]: 7 mm
zone of inhibition at 50 µg/mL [10]: 9 mm
zone of inhibition at 75 µg/mL [11]: 13 mm
zone of inhibition at 100 µg/mL [12]: 16 mm
zone of inhibition at 25 µg/mL [13]: 7 mm
zone of inhibition at 50 µg/mL [14]: 11 mm
zone of inhibition at 75 µg/mL [15]: 14 mm
zone of inhibition at 100 µg/mL [16]: 16 mm
zone of inhibition at 25 µg/mL [17]: 8 mm
zone of inhibition at 50 µg/mL [18]: 12 mm
zone of inhibition at 75 µg/mL [19]: 16 mm
zone of inhibition at 100 µg/mL [20]: 18 mm
zone of inhibition at 25 µg/mL ([21]; read-out: DIZ): 8 mm
zone of inhibition at 50 µg/mL ([22]; read-out: DIZ): 11 mm
zone of inhibition at 75 µg/mL ([23]; read-out: DIZ): 14 mm
zone of inhibition at 100 µg/mL ([24]; read-out: DIZ): 18 mm
zone of inhibition at 25 µg/mL [25]: 7 mm
zone of inhibition at 50 µg/mL [26]: 11 mm
zone of inhibition at 75 µg/mL [27]: 13 mm
zone of inhibition at 100 µg/mL [28]: 17 mm
diameter of the inhibition zone (DIZ) [29]: inactive
diameter of the inhibition zone (DIZ) [30]: inactive
diameter of the inhibition zone (DIZ) [31]: inactive
zone of inhibition at 100 µg/mL [32]: 10 mm

Cc1cccc2nc(N/N=C/c3ccc[nH]3)sc12
diameter of the inhibition zone (DIZ) [1]: inactive
diameter of the inhibition zone (DIZ) [2]: inactive
diameter of the inhibition zone (DIZ) [3]: inactive
diameter of the inhibition zone (DIZ) [4]: inactive
diameter of the inhibition zone (DIZ) [5]: inactive
diameter of the inhibition zone (DIZ) [6]: inactive
diameter of the inhibition zone (DIZ) [7]: inactive
diameter of the inhibition zone (DIZ) [8]: inactive
zone of inhibition at 25 µg/mL [9]: 12 mm
zone of inhibition at 50 µg/mL [10]: 17 mm
zone of inhibition at 75 µg/mL [11]: 22 mm
zone of inhibition at 100 µg/mL [12]: 24 mm
zone of inhibition at 25 µg/mL [13]: 10 mm
zone of inhibition at 50 µg/mL [14]: 14 mm
zone of inhibition at 75 µg/mL [15]: 19 mm
zone of inhibition at 100 µg/mL [16]: 23 mm
zone of inhibition at 25 µg/mL [17]: 4 mm
zone of inhibition at 50 µg/mL [18]: 8 mm
zone of inhibition at 75 µg/mL [19]: 11 mm
zone of inhibition at 100 µg/mL [20]: 17 mm
diameter of the inhibition zone (DIZ) [21]: inactive
diameter of the inhibition zone (DIZ) [22]: inactive
diameter of the inhibition zone (DIZ) [23]: inactive
diameter of the inhibition zone (DIZ) [24]: inactive
zone of inhibition at 25 µg/mL [25]: 4 mm
zone of inhibition at 50 µg/mL [26]: 9 mm
zone of inhibition at 75 µg/mL [27]: 14 mm
zone of inhibition at 100 µg/mL [28]: 18 mm
diameter of the inhibition zone (DIZ) [29]: inactive
diameter of the inhibition zone (DIZ) [30]: inactive
zone of inhibition at 75 µg/mL [31]: 10 mm
zone of inhibition at 100 µg/mL [32]: 15 mm

COc1cc(/C=N/Nc2nc3cccc(C)c3s2)ccc1O
zone of inhibition at 25 µg/mL ([1]; read-out: DIZ): 13 mm
zone of inhibition at 50 µg/mL ([2]; read-out: DIZ): 17 mm
zone of inhibition at 75 µg/mL ([3]; read-out: DIZ): 22 mm
zone of inhibition at 100 µg/mL ([4]; read-out: DIZ): 26 mm
zone of inhibition at 25 µg/mL [5]: 15 mm
zone of inhibition at 50 µg/mL [6]: 19 mm
zone of inhibition at 75 µg/mL [7]: 23 mm
zone of inhibition at 100 µg/mL [8]: 28 mm
zone of inhibition at 25 µg/mL [9]: 10 mm
zone of inhibition at 50 µg/mL [10]: 15 mm
zone of inhibition at 75 µg/mL [11]: 21 mm
zone of inhibition at 100 µg/mL [12]: 27 mm
zone of inhibition at 25 µg/mL [13]: 4 mm
zone of inhibition at 50 µg/mL [14]: 10 mm
zone of inhibition at 75 µg/mL [15]: 14 mm
zone of inhibition at 100 µg/mL [16]: 16 mm
zone of inhibition at 25 µg/mL [17]: 12 mm
zone of inhibition at 50 µg/mL [18]: 16 mm
zone of inhibition at 75 µg/mL [19]: 19 mm
zone of inhibition at 100 µg/mL [20]: 24 mm
diameter of the inhibition zone (DIZ) [21]: inactive
diameter of the inhibition zone (DIZ) [22]: inactive
diameter of the inhibition zone (DIZ) [23]: inactive
diameter of the inhibition zone (DIZ) [24]: inactive
diameter of the inhibition zone (DIZ) [25]: inactive
diameter of the inhibition zone (DIZ) [26]: inactive
diameter of the inhibition zone (DIZ) [27]: inactive
diameter of the inhibition zone (DIZ) [28]: inactive
diameter of the inhibition zone (DIZ) [29]: inactive
diameter of the inhibition zone (DIZ) [30]: inactive
zone of inhibition at 75 µg/mL [31]: 8 mm
zone of inhibition at 100 µg/mL [32]: 12 mm
